Experimental data published in patent US20260167619A2, “INDOLINE COMPOUNDS AND DERIVATIVES AS EGFR INHIBITORS” (BeOne Medicines I GmbH, priority 2020, published 2026).

Assays:
[1] = target: EGFR(Dell9_T790M_C797S) (aa 669-1210, in house) (Homo sapiens, UniProt P00533, T790M/C797S, form not given); assay: Biochemical EGFR inhibition assay (TR-FRET), Del19/T790M/C797S mutant; conditions: ATP at Km, 15 min pre-incubation, 60 min reaction; read-out: Del_TM_CS (Km ATP) IC50
Experimental: (§1) Compounds were tested for inhibition of kinase activity against EGFR (aa668-1210, Invitrogen), EGFR(L858R_T790M_C797S) (aa695-end, Invitrogen) and EGFR(Dell9_T790M_C797S) (aa 669-1210, in house) in assays based on time-resolved fluorescence-resonance energy transfer (TR-FRET) methodology. Recombinant EGFR, EGFR(L858R_T790M_C797S) or EGFR(Dell9_T790M_C797S) was pre-incubated with the compounds at room temperature for 15 minutes in an assay buffer containing 50 mM HEPES pH7.5, 10 mM MgCl2, 2 mM DTT, 1 mM EGTA, 0.1% BSA, 0.01% Tween-20. The reactions were initiated by the addition of ATP (at the concentration of ATP Km) and substrate Biotin-Poly GT. After reaction at room temperature for 60 minutes, stop/detection solution was added. The stop/detection solution contained Eu^3+ cryptate-conjugated mouse monoclonal antibody (PT66) anti-phosphotyrosine and XL665-conjugated streptavidin in buffer containing 50 mM HEPES pH7.0, 800 mM KF, 20 mM EDTA, and 0.1% BSA. Plates were sealed and incubated at room temperature for 1 hour, and the TR-FRET signals (ratio of fluorescence emission at 665 nm over emission at 620 nm with excitation at 337 nm wavelength) were recorded on a PHERAstar FS plate reader (BMG Labtech). The residual enzyme activity in presence of increasing concentrations of compounds was calculated based on the ratio of fluorescence at 665 nm to that at 620 nm. The IC50 for each compound was derived from fitting the data to the four-parameter logistic equation by Dotmatics or Graphpad Prism software.
(§2) These biochemical EGFR enzyme form compound dose-response assays quantify the kinase activity via phosphorylation of a tagged poly-GT substrate. The results of the assay are provided as IC50 values.

[2] = target: T1, EGFR (aa668-1210, Invitrogen) (Homo sapiens, UniProt P00533); assay: Biochemical EGFR inhibition assay (TR-FRET), wild-type EGFR; conditions: ATP at Km, 15 min pre-incubation, 60 min reaction; read-out: WT (Km ATP) IC50
T1 construct: EGFR (aa668-1210, Invitrogen); purchased Invitrogen
T1 sequence (P00533 668-1210): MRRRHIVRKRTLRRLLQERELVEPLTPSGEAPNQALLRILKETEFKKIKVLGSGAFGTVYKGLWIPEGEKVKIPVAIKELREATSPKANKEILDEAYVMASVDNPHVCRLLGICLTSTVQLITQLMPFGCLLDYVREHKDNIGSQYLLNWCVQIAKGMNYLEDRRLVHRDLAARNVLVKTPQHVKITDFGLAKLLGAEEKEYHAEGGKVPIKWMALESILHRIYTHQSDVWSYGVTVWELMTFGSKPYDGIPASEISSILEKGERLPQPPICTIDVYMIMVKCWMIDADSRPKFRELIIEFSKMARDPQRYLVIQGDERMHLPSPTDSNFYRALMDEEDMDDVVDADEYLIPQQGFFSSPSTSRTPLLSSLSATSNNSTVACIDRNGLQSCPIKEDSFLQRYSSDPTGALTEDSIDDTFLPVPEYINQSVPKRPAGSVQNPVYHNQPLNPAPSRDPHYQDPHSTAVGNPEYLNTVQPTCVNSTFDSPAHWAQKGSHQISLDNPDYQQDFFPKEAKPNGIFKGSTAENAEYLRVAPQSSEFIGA
Experimental: as §1, §2

BaF3-LR_TM_CS cells = BaF3-LR_TM_CS cells (Homo sapiens, UniProt P00533, T790M/C797S/L858R, cells depend on it); assay: Cell antiproliferation assay (CellTiter-Glo), BaF3-LR_TM_CS; format: cell-based; conditions: 48 h treatment, read-out: BaF3-LR_TM_CS IC50
Chain of BaF3-LR_TM_CS cells (P00533 whole entry T790M/C797S/L858R): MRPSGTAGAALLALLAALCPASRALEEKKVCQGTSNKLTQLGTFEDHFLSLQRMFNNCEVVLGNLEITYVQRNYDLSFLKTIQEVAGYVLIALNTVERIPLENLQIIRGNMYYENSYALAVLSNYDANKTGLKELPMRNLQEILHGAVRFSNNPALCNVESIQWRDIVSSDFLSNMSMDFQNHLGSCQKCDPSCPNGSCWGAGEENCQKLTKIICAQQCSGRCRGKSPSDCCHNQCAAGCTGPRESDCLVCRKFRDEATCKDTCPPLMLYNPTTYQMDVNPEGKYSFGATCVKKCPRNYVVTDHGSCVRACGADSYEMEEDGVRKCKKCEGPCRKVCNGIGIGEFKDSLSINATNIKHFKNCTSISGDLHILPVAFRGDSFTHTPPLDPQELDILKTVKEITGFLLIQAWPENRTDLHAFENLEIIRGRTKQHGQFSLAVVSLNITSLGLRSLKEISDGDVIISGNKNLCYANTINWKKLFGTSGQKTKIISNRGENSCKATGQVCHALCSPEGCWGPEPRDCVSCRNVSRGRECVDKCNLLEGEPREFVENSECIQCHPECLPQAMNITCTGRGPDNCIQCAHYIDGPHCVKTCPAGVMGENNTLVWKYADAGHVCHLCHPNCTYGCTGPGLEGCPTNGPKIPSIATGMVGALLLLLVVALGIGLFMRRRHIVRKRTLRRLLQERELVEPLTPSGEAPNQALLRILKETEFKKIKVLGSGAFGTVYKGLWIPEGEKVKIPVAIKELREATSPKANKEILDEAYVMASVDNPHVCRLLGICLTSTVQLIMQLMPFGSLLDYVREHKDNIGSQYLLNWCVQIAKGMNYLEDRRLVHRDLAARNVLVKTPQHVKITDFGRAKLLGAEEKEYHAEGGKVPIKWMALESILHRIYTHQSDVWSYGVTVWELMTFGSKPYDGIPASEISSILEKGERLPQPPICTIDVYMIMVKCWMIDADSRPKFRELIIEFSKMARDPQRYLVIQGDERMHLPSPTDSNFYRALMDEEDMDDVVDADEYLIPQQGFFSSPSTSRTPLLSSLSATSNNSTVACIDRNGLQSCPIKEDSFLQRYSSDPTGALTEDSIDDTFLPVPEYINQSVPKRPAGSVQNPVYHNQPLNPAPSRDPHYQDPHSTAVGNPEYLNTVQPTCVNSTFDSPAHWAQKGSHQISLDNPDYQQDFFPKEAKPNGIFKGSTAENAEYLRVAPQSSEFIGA
Experimental: (§3) BaF3 cells are treated with compounds diluted in 0.2% DMSO, dilution is done according to the following protocol: (1) make 500× stock solution in DMSO from 5 mM by 5-fold dilution, total 8 doses were included; (2) make 10× solution in cell culture medium by transferring 2 μl 500× stock solution into 98 μl medium; (3) 10 μl of 10× solution is added to cells and incubate for 48 h.
(§4) After 48 h treatment, add 30 μl CellTiter-Glo reagent[CellTiter-Glo® 2.0, (Promega, Cat #G9242)] to each well; seal the plate and incubate 2 min at room temperature on a plate shaker; Allow the plate to incubate at room temperature for 10 minutes to stabilize the luminescent signal. Record luminescence on BMG PheraStar with luminescence protocol.
(§5) The IC50 value of a compound can be obtained by fitting the following equation
(§6) Wherein, X and Y are known values, and IC50, Hillslope, Top and Bottom are the parameters obtained by fitting with software. Y is the inhibition percentage (calculated from the equation), X is the concentration of the compound; IC50 is the concentration of the compound when the 50% inhibition is reached. The smaller the IC50 value is, the stronger the inhibitory ability of the compound is. Vice versa, the higher the IC50 value is, the weaker the ability the inhibitory ability of the compound is; Hillslope represents the slope of the fitted curve, generally around 1 *; Bottom represents the minimum value of the curve obtained by data fitting, which is generally 0%±20%; Top represents the maximum value of the curve obtained by data fitting, which is generally 100%±20%. The experimental data were fitted by calculating and analyzing with Dotmatics data analysis software.

BaF3-WT cells = BaF3-WT cells (Homo sapiens, UniProt P00533); assay: Cell antiproliferation assay (CellTiter-Glo), BaF3-WT; format: cell-based; conditions: 48 h treatment, read-out: BaF3-WT IC50
Experimental: as §3, §4, §5, §6

BaF3-Del_TM_CS cells = BaF3-Del_TM_CS cells (Homo sapiens, UniProt P00533, T790M/C797S, cells depend on it, form not given); assay: Cell antiproliferation assay (CellTiter-Glo), BaF3-Del_TM_CS; format: cell-based; conditions: 48 h treatment, read-out: BaF3-Del_TM_CS IC50
Chain of BaF3-Del_TM_CS cells (P00533 with tags, fused parts or gaps DEL746-750/T790M/C797S, form open): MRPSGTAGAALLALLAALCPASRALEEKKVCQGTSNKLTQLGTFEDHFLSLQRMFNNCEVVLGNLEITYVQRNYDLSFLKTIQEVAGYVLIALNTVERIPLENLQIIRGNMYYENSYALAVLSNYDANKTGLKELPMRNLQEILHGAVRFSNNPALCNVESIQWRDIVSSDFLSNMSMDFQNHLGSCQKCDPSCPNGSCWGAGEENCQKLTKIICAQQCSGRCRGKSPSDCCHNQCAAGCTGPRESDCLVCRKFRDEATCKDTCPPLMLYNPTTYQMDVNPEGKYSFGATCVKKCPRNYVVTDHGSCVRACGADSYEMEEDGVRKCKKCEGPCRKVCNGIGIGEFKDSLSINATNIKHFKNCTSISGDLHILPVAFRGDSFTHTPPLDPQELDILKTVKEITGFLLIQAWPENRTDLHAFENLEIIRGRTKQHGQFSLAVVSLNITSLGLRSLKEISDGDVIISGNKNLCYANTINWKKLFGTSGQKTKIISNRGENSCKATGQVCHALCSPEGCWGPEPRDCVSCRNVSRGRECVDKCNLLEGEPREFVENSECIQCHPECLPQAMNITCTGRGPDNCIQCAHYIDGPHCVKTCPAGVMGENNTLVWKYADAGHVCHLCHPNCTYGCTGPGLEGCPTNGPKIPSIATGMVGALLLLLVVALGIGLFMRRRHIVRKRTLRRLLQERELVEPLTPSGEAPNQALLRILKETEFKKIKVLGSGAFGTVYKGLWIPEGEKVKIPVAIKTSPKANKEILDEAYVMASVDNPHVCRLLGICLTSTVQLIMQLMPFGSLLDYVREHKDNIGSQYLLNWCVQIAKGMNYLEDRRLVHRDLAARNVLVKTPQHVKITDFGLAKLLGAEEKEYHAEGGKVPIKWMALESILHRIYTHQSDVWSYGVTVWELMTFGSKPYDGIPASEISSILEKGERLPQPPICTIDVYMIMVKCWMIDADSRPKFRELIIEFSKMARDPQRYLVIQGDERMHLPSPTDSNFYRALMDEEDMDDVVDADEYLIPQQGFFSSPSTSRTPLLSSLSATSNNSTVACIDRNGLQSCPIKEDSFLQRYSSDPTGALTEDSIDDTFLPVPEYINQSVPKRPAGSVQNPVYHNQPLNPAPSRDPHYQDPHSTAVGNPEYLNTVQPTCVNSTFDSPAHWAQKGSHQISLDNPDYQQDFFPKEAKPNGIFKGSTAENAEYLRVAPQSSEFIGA
Experimental: as §3, §4, §5, §6

[3] = target: T2, EGFR(L858R_T790M_C797S) (aa695-end, Invitrogen) (Homo sapiens, UniProt P00533, C797S/L858R/T790M); assay: Biochemical EGFR inhibition assay (TR-FRET), L858R/T790M/C797S mutant; conditions: ATP at Km, 15 min pre-incubation, 60 min reaction; read-out: LR_TM_CS (Km ATP) IC50
T2 construct: purchased Invitrogen
T2 sequence (P00533 695-1210 T790M/C797S/L858R): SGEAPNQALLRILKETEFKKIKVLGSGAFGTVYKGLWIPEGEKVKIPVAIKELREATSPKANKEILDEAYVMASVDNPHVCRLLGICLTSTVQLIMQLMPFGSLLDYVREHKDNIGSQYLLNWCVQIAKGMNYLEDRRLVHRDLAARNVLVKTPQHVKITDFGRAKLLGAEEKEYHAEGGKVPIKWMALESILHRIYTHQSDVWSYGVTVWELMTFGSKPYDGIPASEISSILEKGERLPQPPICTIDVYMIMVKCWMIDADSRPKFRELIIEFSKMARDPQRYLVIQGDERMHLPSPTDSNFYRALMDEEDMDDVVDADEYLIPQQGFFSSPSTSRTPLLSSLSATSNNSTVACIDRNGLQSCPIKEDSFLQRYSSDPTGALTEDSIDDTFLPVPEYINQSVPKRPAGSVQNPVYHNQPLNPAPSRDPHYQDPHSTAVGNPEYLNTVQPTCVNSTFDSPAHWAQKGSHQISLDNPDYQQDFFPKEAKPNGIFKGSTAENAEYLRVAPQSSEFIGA
Experimental: as §1, §2

Chain of EGFR(Dell9_T790M_C797S) (aa 669-1210, in house) (P00533 with tags, fused parts or gaps DEL746-750/T790M/C797S, form open): as the sequence (P00533 with tags, fused parts or gaps DEL746-750/T790M/C797S, form open) above

Structure (SMILES) | IC50 [1] | IC50 [2] | GI50 (BaF3-LR_TM_CS cells) | GI50 (BaF3-WT cells) | GI50 (BaF3-Del_TM_CS cells) | IC50 [3]
COc1cc(C2CCN(C)CC2)c(C)cc1Nc1nc(Nc2cccc3c2N(S(C)(=O)=O)CC3)c2cc[nH]c2n1 [Example 99, N^2-(2-methoxy-5-methyl-4-(1-methylpiperidin-4-yl)phenyl)-N^4-(1-(methylsulfonyl)indolin-7-yl)-7H-pyrrolo[2,3-d]pyrimidine-2,4-diamine] | 8.6 nM | 427 nM | 399 nM | 1970 nM | 59 nM | 3 nM
Cc1cc(Nc2nc(Nc3cccc4c3N(S(C)(=O)=O)CC4)c3cc[nH]c3n2)c(OC(C)C)cc1N1CCC(N2CCN(C)CC2)CC1 [Example 92, N^2-(2-isopropoxy-5-methyl-4-(4-(4-methylpiperazin-1-yl)piperidin-1-yl)phenyl)-N^4-(1-(methylsulfonyl)indolin-7-yl)-7H-pyrrolo[2,3-d]pyrimidine-2,4-diamine] | 14 nM | 1530 nM | 504 nM | 1400 nM | 225 nM | 17 nM
COc1cc(N2CCCN(C)CC2)c(C)cc1Nc1nc(Nc2cccc3c2N(S(C)(=O)=O)CC3)c2cc[nH]c2n1 [Example 101, N^2-(2-methoxy-5-methyl-4-(4-methyl-1,4-diazepan-1-yl)phenyl)-N^4-(1-(methylsulfonyl)indolin-7-yl)-7H-pyrrolo[2,3-d]pyrimidine-2,4-diamine] | 3.1 nM | 170 nM | 157 nM | 1410 nM | 58.9 nM | 2 nM
CN1CCN(C2CCN(c3ccc(Nc4ncc(Br)c(Nc5cccc6c5N(S(C)(=O)=O)CC6)n4)c4c3OCCO4)CC2)CC1 [Example 193, 5-bromo-N2-(8-(4-(4-methylpiperazin-1-yl)piperidin-1-yl)-2,3-dihydrobenzo[b][1,4]dioxin-5-yl)-N4-(1-(methylsulfonyl)indolin-7-yl)pyrimidine-2,4-diamine] | 0.2 nM | 7.1 nM | – | – | – | 0.9 nM
CN1CCN(C2CCN(c3ccc(Nc4nc(Nc5cccc6c5N(S(C)(=O)=O)CC6)c5cc[nH]c5n4)cc3Cl)CC2)CC1 [Example 80, N^2-(3-chloro-4-(4-(4-methylpiperazin-1-yl)piperidin-1-yl)phenyl)-N^4-(1-(methylsulfonyl)indolin-7-yl)-7H-pyrrolo[2,3-d]pyrimidine-2,4-diamine] | 0.85 nM | 40.4 nM | – | – | – | 0.7 nM
CN1CCN(C2CCN(c3ccc(Nc4nc(Nc5cccc6c5N(S(C)(=O)=O)CC6)c5cc[nH]c5n4)cn3)CC2)CC1 [Example 184, N2-(6-(4-(4-methylpiperazin-1-yl)piperidin-1-yl)pyridin-3-yl)-N4-(1-(methylsulfonyl)indolin-7-yl)-7H-pyrrolo[2,3-d]pyrimidine-2,4-diamine] | 2.5 nM | 427 nM | – | – | – | 1.7 nM
COc1cc(-c2cnn(CCN3CCN(C)CC3)c2)ccc1Nc1nc(Nc2cccc3c2N(S(C)(=O)=O)CC3)c2cc[nH]c2n1 [Example 115, N^2-(2-methoxy-4-(1-(2-(4-methylpiperazin-1-yl)ethyl)-1H-pyrazol-4-yl)phenyl)-N^4-(1-(methylsulfonyl)indolin-7-yl)-7H-pyrrolo[2,3-d]pyrimidine-2,4-diamine] | 42.8 nM | 2490 nM | – | – | – | 20.7 nM
COc1cc(Nc2nc(Nc3cccc4c3N(S(C)(=O)=O)CC4)c3cc[nH]c3n2)cc(F)c1N1CCC(N2CCN(C)CC2)CC1 [Example 148, N2-(3-fluoro-5-methoxy-4-(4-(4-methylpiperazin-1-yl)piperidin-1-yl)phenyl)-N4-(1-(methylsulfonyl)indolin-7-yl)-7H-pyrrolo[2,3-d]pyrimidine-2,4-diamine] | 6.5 nM | 1390 nM | – | – | – | 9.9 nM
CN1CCN(C2CCN(c3ccc(Nc4nc(Nc5cccc6c5N(S(C)(=O)=O)CC6)c5cc[nH]c5n4)nc3)CC2)CC1 [Example 154, N2-(5-(4-(4-methylpiperazin-1-yl)piperidin-1-yl)pyridin-2-yl)-N4-(1-(methylsulfonyl)indolin-7-yl)-7H-pyrrolo[2,3-d]pyrimidine-2,4-diamine] | 2.2 nM | 303 nM | – | – | – | 2.7 nM

The remaining lines, values ahead:

IC50 [1] | IC50 [2] | GI50 (BaF3-LR_TM_CS cells) | GI50 (BaF3-WT cells) | GI50 (BaF3-Del_TM_CS cells) | IC50 [3] | Structure (SMILES)
0.2 nM | 0.4 nM | 37.3 nM | 411 nM | 7.59 nM | 0.3 nM | COc1cc(N2CCC(N3CCN(C)CC3)CC2)ccc1Nc1ncc(Cl)c(Nc2cccc3c2N(S(C)(=O)=O)CC3)n1 [Example 30, 5-chloro-N^2-(2-methoxy-4-(4-(4-methylpiperazin-1-yl)piperidin-1-yl)phenyl)-N^4-(1-(methylsulfonyl)indolin-7-yl)pyrimidine-2,4-diamine]
0.44 nM | 3 nM | – | – | – | 1.17 nM | COc1cc(N2CCC(N3CCN(C)CC3)CC2)ccc1Nc1ncc(Cl)c(Nc2cccc3c2N(S(=O)(=O)CF)CC3)n1 [Example 12, 5-chloro-N^4-(1-((fluoromethyl)sulfonyl)indolin-7-yl)-N^2-(2-methoxy-4-(4-(4-methylpiperazin-1-yl)piperidin-1-yl)phenyl)pyrimidine-2,4-diamine]
5.6 nM | 883 nM | – | – | – | 3.8 nM | COc1cc(N2CCC(N3CCN(C)CC3)CC2)ncc1Nc1nc(Nc2cccc3c2N(S(C)(=O)=O)CC3)c2cc[nH]c2n1 [Example 190, N2-(4-methoxy-6-(4-(4-methylpiperazin-1-yl)piperidin-1-yl)pyridin-3-yl)-N4-(1-(methylsulfonyl)indolin-7-yl)-7H-pyrrolo[2,3-d]pyrimidine-2,4-diamine]
0.4 nM | 22.1 nM | – | – | – | 0.4 nM | COc1cc(Nc2nc(Nc3cccc4c3N(S(C)(=O)=O)CC4)c3cc[nH]c3n2)c(F)cc1N1CCC(N2CCN(C)CC2)CC1 [Example 149, N2-(2-fluoro-5-methoxy-4-(4-(4-methylpiperazin-1-yl)piperidin-1-yl)phenyl)-N4-(1-(methylsulfonyl)indolin-7-yl)-7H-pyrrolo[2,3-d]pyrimidine-2,4-diamine]
0.2 nM | 0.7 nM | – | – | – | 0.1 nM | COc1cc(N2CCC(N3CCN(C)C4(CC4)C3)CC2)ccc1Nc1ncc(Br)c(Nc2cccc3c2N(S(C)(=O)=O)CC3)n1 [Example 192, 5-bromo-N2-(2-methoxy-4-(4-(4-methyl-4,7-diazaspiro[2.5]octan-7-yl)piperidin-1-yl)phenyl)-N4-(1-(methylsulfonyl)indolin-7-yl)pyrimidine-2,4-diamine]
